Assay results: patent publication US12116358B2, “Substituted indoles and methods of use thereof” (EPIZYME, INC., priority 2018, dated 2024)

How the values were obtained:
[1] = tested on: multiple myeloma cell lines (t(4;14) and non-t(4;14)); test: 14 day LTP assay in multiple myeloma cells; assay type: cell-based, human; details: FIG. 1 scatter graph
KMS-34 cells = test: 14 day KMS-34 long term proliferation (LTP) assay; details: KMS-34, t(4;14) multiple myeloma cell line; 14-day assay; FIG. 2
Description: 14 Day KMS-34 Long Term Proliferation (LTP) Assay
Incubate plates for 96 hrs.
The final concentration is 1 μm.
To calculate growth for days 4, 7, 11, and 14:
1. Calculate the split factor for day 4 to 7, day 7 to 11, and day 11-14 The split factor is the viable cells/mL on Day X (either 4, 7, or 11) divided by the density the cells are being split back to.
2. For growth of cells from day 4 to 7, multiply the day 7 viable cells/mL density by the split factor from day 4.
4. For growth of cells from Day 11 to 14, multiply the Day 14 viable cells/mL density by the days 4, 7, and 11 split factors.
5. Plot growth on semi-log chart (viable cells/mL on Y axis, in log, and days on X axis).
From 5 mM to 0.25 μm. […] Mix well by pipetting up and down.

KMS-11 tumor = test: Anti-tumor activity in human myeloma KMS-11 tumor-bearing NOD SCID mice (subcutaneous xenograft); assay type: in vivo
From the text: Evaluation of the Anti-Tumor Activity of Cpd. […] Based on the tumor volume and body weight, mice were assigned to respective groups such that the average starting tumor size and body weight was the same for each treatment group. […] The tumor cells were routinely subcultured before confluence, not to exceed 4-5 passages. The cells growing in an exponential growth phase were harvested and counted for tumor inoculation. […] The treatment was started when the mean tumor size reached 118 mm^3. Mice were then assigned to groups such that the mean tumor volume was the same for each treatment group and time point. […] Tumor Measurements The measurement of tumor size was conducted twice weekly with a caliper and the tumor volume (mm3) is estimated using the formula: TV=a×b×b/2, where “a” and “b” are long and short diameters of a tumor, respectively. The TVs are used for calculation of the tumor growth inhibition and tumor growth delay. […] The “[…]” and “TVinitial” are the mean tumor volumes on the final day and initial day of dosing. After take down 5 mice of G2 G5 post the final dosing, the remaining mice were maintained for monitoring tumor outgrowth twice weekly. […] Animals showing obvious signs of severe distress and/or pain were humanely sacrificed by carbon dioxide followed by cervical dislocation to ensure death. Samples Collection Tumor samples and plasma were collect at the indicated day. Data Acquisition and Statistical Analysis Data Acquisition: Protocol-required measurements and observations were recorded manually on appropriate forms, or directly on a computerized database. Statistical Analysis: All statistical tests were conducted, and the level of significance was set at 5% or P<0.05. The group means, standard deviation were calculated for all measurement parameters as study designed. Two-way RM ANOVA followed by Tukeys post hoc comparisons of the means. The therapeutic effects of compound as a single agent in the KMS-11 subcutaneous xenograft model were evaluated.

[2] = G2, 31.25 mg/kg, p.o., BID × 28 days, PG-Day 25

## CC(=O)N1CCN([C@H]2CCC[C@@H](NC(=O)c3cc4c(F)ccc(C)c4[nH]3)C2)CC1 [Cpd. No. 15, N-((1R,3S)-3-(4-acetylpiperazin-1-yl)cyclohexyl)-4-fluoro-7-methyl-1H-indole-2-carboxamide]
[1]
  anti-proliferative effects in t(4;14) and non-t(4;14) multiple myeloma cell lines: selective anti-proliferative effects
KMS-34 cells
  type of response of KMS-34 cells: cytotoxic response
KMS-11 tumor; G2, 31.25 mg/kg p.o. BID 28 days, PG-D1 (D 7)
  Tumor volume (Mean ± SEM): 119 ± 6 mm3
KMS-11 tumor; G2, 31.25 mg/kg p.o. BID 28 days, PG-D4 (D 10)
  Tumor volume (Mean ± SEM): 225 ± 21 mm3
KMS-11 tumor; G2, 31.25 mg/kg p.o. BID 28 days, PG-D7 (D 13)
  Tumor volume (Mean ± SEM): 271 ± 19 mm3
KMS-11 tumor; G2, 31.25 mg/kg p.o. BID 28 days, PG-D11 (D 17)
  Tumor volume (Mean ± SEM): 408 ± 46 mm3
KMS-11 tumor; G2, 31.25 mg/kg p.o. BID 28 days, PG-D14 (D 20)
  Tumor volume (Mean ± SEM): 478 ± 54 mm3
KMS-11 tumor; G2, 31.25 mg/kg p.o. BID 28 days, PG-D18 (D 24)
  Tumor volume (Mean ± SEM): 609 ± 71 mm3
KMS-11 tumor; G2, 31.25 mg/kg p.o. BID 28 days, PG-D21 (D 27)
  Tumor volume (Mean ± SEM): 686 ± 80 mm3
KMS-11 tumor; G2, 31.25 mg/kg p.o. BID 28 days, PG-D25 (D 31)
  Tumor volume (Mean ± SEM): 763 ± 97 mm3
KMS-11 tumor; G2, 31.25 mg/kg p.o. BID 28 days, PG-D28 (D 34)
  Tumor volume post the final dosing (Mean ± SEM): 882 ± 131 mm3
KMS-11 tumor; G2, 31.25 mg/kg p.o. BID 28 days, PG-D32 (D 38)
  Tumor volume post the final dosing (Mean ± SEM): 1123 ± 149 mm3
KMS-11 tumor; G2, 31.25 mg/kg p.o. BID 28 days, PG-D35 (D 41)
  Tumor volume post the final dosing (Mean ± SEM): 1499 ± 196 mm3
KMS-11 tumor; G2, 31.25 mg/kg p.o. BID 28 days, PG-D39 (D 45)
  Tumor volume post the final dosing (Mean ± SEM): 1747 ± 243 mm3
KMS-11 tumor; G2, 31.25 mg/kg, p.o., BID × 28 days
  Tumor Size at PG-Day 25 (Mean ± SEM): 763 ± 97 mm3
KMS-11 tumor; [2]
  TGI: 74%
  ΔT/ΔC: 26%
KMS-11 tumor; G3, 62.5 mg/kg p.o. BID 28 days, PG-D1 (D 7)
  Tumor volume (Mean ± SEM): 117 ± 6 mm3
KMS-11 tumor; G3, 62.5 mg/kg p.o. BID 28 days, PG-D4 (D 10)
  Tumor volume (Mean ± SEM): 178 ± 11 mm3
KMS-11 tumor; G3, 62.5 mg/kg p.o. BID 28 days, PG-D7 (D 13)
  Tumor volume (Mean ± SEM): 216 ± 11 mm3
KMS-11 tumor; G3, 62.5 mg/kg p.o. BID 28 days, PG-D11 (D 17)
  Tumor volume (Mean ± SEM): 231 ± 16 mm3
KMS-11 tumor; G3, 62.5 mg/kg p.o. BID 28 days, PG-D14 (D 20)
  Tumor volume (Mean ± SEM): 184 ± 17 mm3
KMS-11 tumor; G3, 62.5 mg/kg p.o. BID 28 days, PG-D18 (D 24)
  Tumor volume (Mean ± SEM): 176 ± 22 mm3
KMS-11 tumor; G3, 62.5 mg/kg p.o. BID 28 days, PG-D21 (D 27)
  Tumor volume (Mean ± SEM): 129 ± 25 mm3
KMS-11 tumor; G3, 62.5 mg/kg p.o. BID 28 days, PG-D25 (D 31)
  Tumor volume (Mean ± SEM): 115 ± 30 mm3
KMS-11 tumor; G3, 62.5 mg/kg p.o. BID 28 days, PG-D28 (D 34)
  Tumor volume post the final dosing (Mean ± SEM): 117 ± 36 mm3
KMS-11 tumor; G3, 62.5 mg/kg p.o. BID 28 days, PG-D32 (D 38)
  Tumor volume post the final dosing (Mean ± SEM): 65 ± 23 mm3
KMS-11 tumor; G3, 62.5 mg/kg p.o. BID 28 days, PG-D35 (D 41)
  Tumor volume post the final dosing (Mean ± SEM): 150 ± 60 mm3
KMS-11 tumor; G3, 62.5 mg/kg p.o. BID 28 days, PG-D39 (D 45)
  Tumor volume post the final dosing (Mean ± SEM): 309 ± 108 mm3
KMS-11 tumor; G3, 62.5 mg/kg, p.o., BID × 28 days
  Tumor Size at PG-Day 25 (Mean ± SEM): 115 ± 30 mm3
KMS-11 tumor; G3, 62.5 mg/kg, p.o., BID × 28 days, PG-Day 25
  ΔT/ΔC: 0%
KMS-11 tumor; G4, 125 mg/kg p.o. BID 18 days then BID(3D− 4D+) 7 days, PG-D1 (D 7)
  Tumor volume (Mean ± SEM): 117 ± 6 mm3
KMS-11 tumor; G4, 125 mg/kg p.o. BID 18 days then BID(3D− 4D+) 7 days, PG-D4 (D 10)
  Tumor volume (Mean ± SEM): 191 ± 11 mm3
KMS-11 tumor; G4, 125 mg/kg p.o. BID 18 days then BID(3D− 4D+) 7 days, PG-D7 (D 13)
  Tumor volume (Mean ± SEM): 219 ± 9 mm3
KMS-11 tumor; G4, 125 mg/kg p.o. BID 18 days then BID(3D− 4D+) 7 days, PG-D11 (D 17)
  Tumor volume (Mean ± SEM): 196 ± 11 mm3
KMS-11 tumor; G4, 125 mg/kg p.o. BID 18 days then BID(3D− 4D+) 7 days, PG-D14 (D 20)
  Tumor volume (Mean ± SEM): 119 ± 10 mm3
KMS-11 tumor; G4, 125 mg/kg p.o. BID 18 days then BID(3D− 4D+) 7 days, PG-D18 (D 24)
  Tumor volume (Mean ± SEM): 99 ± 16 mm3
KMS-11 tumor; G4, 125 mg/kg p.o. BID 18 days then BID(3D− 4D+) 7 days, PG-D21 (D 27)
  Tumor volume (Mean ± SEM): 85 ± 20 mm3
KMS-11 tumor; G4, 125 mg/kg p.o. BID 18 days then BID(3D− 4D+) 7 days, PG-D25 (D 31)
  Tumor volume (Mean ± SEM): 131 ± 39 mm3
KMS-11 tumor; G4, 125 mg/kg p.o. BID 18 days then BID(3D− 4D+) 7 days, PG-D28 (D 34)
  Tumor volume post the final dosing (Mean ± SEM): 99 ± 20 mm3
KMS-11 tumor; G4, 125 mg/kg p.o. BID 18 days then BID(3D− 4D+) 7 days, PG-D32 (D 38)
  Tumor volume post the final dosing (Mean ± SEM): 239 ± 68 mm3
KMS-11 tumor; G4, 125 mg/kg p.o. BID 18 days then BID(3D− 4D+) 7 days, PG-D35 (D 41)
  Tumor volume post the final dosing (Mean ± SEM): 421 ± 108 mm3
KMS-11 tumor; G4, 125 mg/kg p.o. BID 18 days then BID(3D− 4D+) 7 days, PG-D39 (D 45)
  Tumor volume post the final dosing (Mean ± SEM): 757 ± 215 mm3
KMS-11 tumor; G4, 125 mg/kg, p.o., BID × 18 days, BID(3D− 4D+) × 7 days
  Tumor Size at PG-Day 25 (Mean ± SEM): 131 ± 39 mm3
KMS-11 tumor; G4, 125 mg/kg, p.o., BID × 18 days, BID(3D− 4D+) × 7 days, PG-Day 25
  ΔT/ΔC: 1%
KMS-11 tumor; G5, 175 mg/kg p.o. BID 11 days then BID(3D− 4D+) 14 days, PG-D1 (D 7)
  Tumor volume (Mean ± SEM): 119 ± 6 mm3
KMS-11 tumor; G5, 175 mg/kg p.o. BID 11 days then BID(3D− 4D+) 14 days, PG-D4 (D 10)
  Tumor volume (Mean ± SEM): 192 ± 13 mm3
KMS-11 tumor; G5, 175 mg/kg p.o. BID 11 days then BID(3D− 4D+) 14 days, PG-D7 (D 13)
  Tumor volume (Mean ± SEM): 221 ± 17 mm3
KMS-11 tumor; G5, 175 mg/kg p.o. BID 11 days then BID(3D− 4D+) 14 days, PG-D11 (D 17)
  Tumor volume (Mean ± SEM): 199 ± 24 mm3
KMS-11 tumor; G5, 175 mg/kg p.o. BID 11 days then BID(3D− 4D+) 14 days, PG-D14 (D 20)
  Tumor volume (Mean ± SEM): 167 ± 27 mm3
KMS-11 tumor; G5, 175 mg/kg p.o. BID 11 days then BID(3D− 4D+) 14 days, PG-D18 (D 24)
  Tumor volume (Mean ± SEM): 189 ± 32 mm3
KMS-11 tumor; G5, 175 mg/kg p.o. BID 11 days then BID(3D− 4D+) 14 days, PG-D21 (D 27)
  Tumor volume (Mean ± SEM): 214 ± 45 mm3
KMS-11 tumor; G5, 175 mg/kg p.o. BID 11 days then BID(3D− 4D+) 14 days, PG-D25 (D 31)
  Tumor volume (Mean ± SEM): 225 ± 45 mm3
KMS-11 tumor; G5, 175 mg/kg p.o. BID 11 days then BID(3D− 4D+) 14 days, PG-D28 (D 34)
  Tumor volume post the final dosing (Mean ± SEM): 269 ± 146 mm3
KMS-11 tumor; G5, 175 mg/kg p.o. BID 11 days then BID(3D− 4D+) 14 days, PG-D32 (D 38)
  Tumor volume post the final dosing (Mean ± SEM): 589 ± 378 mm3
KMS-11 tumor; G5, 175 mg/kg p.o. BID 11 days then BID(3D− 4D+) 14 days, PG-D35 (D 41)
  Tumor volume post the final dosing (Mean ± SEM): 732 ± 422 mm3
KMS-11 tumor; G5, 175 mg/kg p.o. BID 11 days then BID(3D− 4D+) 14 days, PG-D39 (D 45)
  Tumor volume post the final dosing (Mean ± SEM): 1183 ± 686 mm3
KMS-11 tumor; G5, 175 mg/kg, p.o., BID × 18 days, BID(3D− 4D+) × 14 days
  Tumor Size at PG-Day 25 (Mean ± SEM): 225 ± 45 mm3
KMS-11 tumor; G5, 175 mg/kg, p.o., BID × 18 days, BID(3D− 4D+) × 14 days, PG-Day 25
  ΔT/ΔC: 4%
